Earlier results, collected in publication PMC11866498 (Cell Reports Medicine, 2025).

How the values were obtained:
[1] = ref Previous studies
[2] = ref Previous studies; remark: listed apart in the source

water solubility [1]: inadequate
in vivo stability [2]: inadequate
SMILES: C[C@H]1COC2=C1C(=O)C(=O)c1c2ccc2c1CCCC2(C)C [CTS, cryptotanshinone]
